Test results published in PubChem BioAssay (NCI).
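The compound was tested at five concentrations on cells cultured in 96-well plates, with a 48-hour exposure period. TGI marks complete inhibition of growth.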

Key:
Assay in all cases: inhibition of tumour cell growth, NCI panel, 48 h
U251 CNS = system: U251 CNS
SNB-75 CNS = system: SNB-75 CNS
SF-268 CNS = system: SF-268 CNS
TK-10 renal = system: TK-10 renal
HT29 colon = system: HT29 colon
MDA-N = system: MDA-N
SF-295 CNS = system: SF-295 CNS
UACC-62 melanoma = system: UACC-62 melanoma
IGROV1 ovarian = system: IGROV1 ovarian
A549 NSCLC = system: A549 NSCLC
KM12 colon = system: KM12 colon
SK-MEL-5 melanoma = system: SK-MEL-5 melanoma
RXF 393 renal = system: RXF 393 renal
M14 melanoma = system: M14 melanoma
K-562 leukemia = system: K-562 leukemia
RPMI-8226 leukemia = system: RPMI-8226 leukemia
OVCAR-4 ovarian = system: OVCAR-4 ovarian
COLO 205 colon = system: COLO 205 colon
SK-MEL-28 melanoma = system: SK-MEL-28 melanoma
MDA-MB-435 = system: MDA-MB-435
MOLT-4 leukemia = system: MOLT-4 leukemia
SR leukemia = system: SR leukemia
HOP-92 NSCLC = system: HOP-92 NSCLC
SK-MEL-2 melanoma = system: SK-MEL-2 melanoma
MDA-MB-231 breast = system: MDA-MB-231 breast
HCT-15 colon = system: HCT-15 colon
OVCAR-5 ovarian = system: OVCAR-5 ovarian
UO-31 renal = system: UO-31 renal
T-47D breast = system: T-47D breast
MALME-3M melanoma = system: MALME-3M melanoma
CCRF-CEM leukemia = system: CCRF-CEM leukemia
MCF7 breast = system: MCF7 breast
NCI/ADR-RES ovarian = system: NCI/ADR-RES ovarian
NCI-H522 lung = system: NCI-H522 lung
SNB-19 CNS = system: SNB-19 CNS
SN12C renal = system: SN12C renal
UACC-257 melanoma = system: UACC-257 melanoma
SW-620 colon = system: SW-620 colon
NCI-H226 lung = system: NCI-H226 lung
OVCAR-8 ovarian = system: OVCAR-8 ovarian
BT-549 breast = system: BT-549 breast
ACHN renal = system: ACHN renal
CAKI-1 renal = system: CAKI-1 renal
OVCAR-3 ovarian = system: OVCAR-3 ovarian
A498 renal = system: A498 renal
786-0 renal = system: 786-0 renal
PC-3 prostate = system: PC-3 prostate
NCI-H460 lung = system: NCI-H460 lung
NCI-H23 lung = system: NCI-H23 lung
HCC-2998 colon = system: HCC-2998 colon
SF-539 CNS = system: SF-539 CNS
DU-145 prostate = system: DU-145 prostate
HCT-116 colon = system: HCT-116 colon
HL-60(TB) leukemia = system: HL-60(TB) leukemia
EKVX NSCLC = system: EKVX NSCLC
LOX IMVI melanoma = system: LOX IMVI melanoma
HS 578T breast = system: HS 578T breast
HOP-62 NSCLC = system: HOP-62 NSCLC
SK-OV-3 ovarian = system: SK-OV-3 ovarian

For `Nc1ccc(COC(O)CN2CCCCC2)cc1[N+](=O)[O-]` (centres undefined), the TGI (U251 CNS) was over 100 µM, the TGI (SNB-75 CNS) was over 100 µM and the TGI (SF-268 CNS) was over 100 µM. For the same compound, the TGI (TK-10 renal) was over 100 µM, the TGI (HT29 colon) was over 100 µM and the TGI (MDA-N) was over 100 µM. For the same compound, the TGI (SF-295 CNS) was over 100 µM, the TGI (UACC-62 melanoma) was over 100 µM and the TGI (IGROV1 ovarian) was over 100 µM. The TGI (A549 NSCLC) was over 100 µM, the TGI (KM12 colon) was over 100 µM and the TGI (SK-MEL-5 melanoma) was over 100 µM. The TGI (RXF 393 renal) was over 100 µM, the TGI (M14 melanoma) was over 100 µM and the TGI (K-562 leukemia) was over 100 µM. For the same compound, the TGI (RPMI-8226 leukemia) was over 100 µM, the TGI (OVCAR-4 ovarian) was over 100 µM and the TGI (COLO 205 colon) was over 100 µM. The TGI (SK-MEL-28 melanoma) was over 100 µM, the TGI (MDA-MB-435) was over 100 µM and the TGI (MOLT-4 leukemia) was over 100 µM. For the same compound, the TGI (SR leukemia) was over 100 µM, the TGI (HOP-92 NSCLC) was over 100 µM and the TGI (SK-MEL-2 melanoma) was over 100 µM. The TGI (MDA-MB-231 breast) was over 100 µM, the TGI (HCT-15 colon) was over 100 µM and the TGI (OVCAR-5 ovarian) was over 100 µM. For the same compound, the TGI (UO-31 renal) was over 100 µM, the TGI (T-47D breast) was over 100 µM and the TGI (MALME-3M melanoma) was over 100 µM. It also gave a TGI (CCRF-CEM leukemia) of over 100 µM, a TGI (MCF7 breast) of over 100 µM and a TGI (NCI/ADR-RES ovarian) of over 100 µM. It also gave a TGI (NCI-H522 lung) of over 100 µM, a TGI (SNB-19 CNS) of over 100 µM and a TGI (SN12C renal) of over 100 µM. For the same compound, the TGI (UACC-257 melanoma) was over 100 µM, the TGI (SW-620 colon) was over 100 µM and the TGI (NCI-H226 lung) was over 100 µM. It also gave a TGI (OVCAR-8 ovarian) of over 100 µM, a TGI (BT-549 breast) of over 100 µM and a TGI (ACHN renal) of over 100 µM. For the same compound, the TGI (CAKI-1 renal) was over 100 µM, the TGI (OVCAR-3 ovarian) was over 100 µM and the TGI (A498 renal) was over 100 µM. It also gave a TGI (786-0 renal) of over 100 µM, a TGI (PC-3 prostate) of over 100 µM and a TGI (NCI-H460 lung) of over 100 µM. The TGI (NCI-H23 lung) was over 100 µM, the TGI (HCC-2998 colon) was over 100 µM and the TGI (SF-539 CNS) was over 100 µM. It also gave a TGI (DU-145 prostate) of over 100 µM, a TGI (HCT-116 colon) of over 100 µM and a TGI (HL-60(TB) leukemia) of over 100 µM.

With `CCCCCCCCP(=O)(O)OP(=O)(O)OCC1OC(n2ccc(N)nc2=O)C(O)C1O` (centres undefined) the TGI (U251 CNS) was over 100 µM, the TGI (SNB-75 CNS) was over 100 µM and the TGI (SF-268 CNS) was over 100 µM. For the same compound, the TGI (EKVX NSCLC) was over 100 µM, the TGI (TK-10 renal) was over 100 µM and the TGI (HT29 colon) was over 100 µM. For the same compound, the TGI (MDA-N) was over 100 µM, the TGI (SF-295 CNS) was over 100 µM and the TGI (UACC-62 melanoma) was over 100 µM. It also gave a TGI (IGROV1 ovarian) of over 100 µM, a TGI (A549 NSCLC) of over 100 µM and a TGI (KM12 colon) of over 100 µM. The TGI (SK-MEL-5 melanoma) was over 100 µM, the TGI (RXF 393 renal) was over 100 µM and the TGI (M14 melanoma) was over 100 µM. For the same compound, the TGI (K-562 leukemia) was over 100 µM, the TGI (LOX IMVI melanoma) was over 100 µM and the TGI (RPMI-8226 leukemia) was over 100 µM. The TGI (OVCAR-4 ovarian) was over 100 µM, the TGI (COLO 205 colon) was over 100 µM and the TGI (SK-MEL-28 melanoma) was over 100 µM. The TGI (MDA-MB-435) was over 100 µM, the TGI (MOLT-4 leukemia) was over 100 µM and the TGI (HOP-92 NSCLC) was over 100 µM. The TGI (SK-MEL-2 melanoma) was over 100 µM, the TGI (HS 578T breast) was over 100 µM and the TGI (MDA-MB-231 breast) was over 100 µM. For the same compound, the TGI (HCT-15 colon) was over 100 µM, the TGI (OVCAR-5 ovarian) was over 100 µM and the TGI (HOP-62 NSCLC) was over 100 µM. It also gave a TGI (UO-31 renal) of over 100 µM, a TGI (T-47D breast) of over 100 µM and a TGI (MALME-3M melanoma) of over 100 µM. For the same compound, the TGI (CCRF-CEM leukemia) was over 100 µM, the TGI (MCF7 breast) was over 100 µM and the TGI (NCI/ADR-RES ovarian) was over 100 µM. It also gave a TGI (NCI-H522 lung) of over 100 µM, a TGI (SNB-19 CNS) of over 100 µM and a TGI (SN12C renal) of over 100 µM. For the same compound, the TGI (UACC-257 melanoma) was over 100 µM, the TGI (SW-620 colon) was over 100 µM and the TGI (NCI-H226 lung) was over 100 µM. It also gave a TGI (OVCAR-8 ovarian) of over 100 µM, a TGI (BT-549 breast) of over 100 µM and a TGI (ACHN renal) of over 100 µM. The TGI (CAKI-1 renal) was over 100 µM, the TGI (OVCAR-3 ovarian) was over 100 µM and the TGI (A498 renal) was over 100 µM. It also gave a TGI (786-0 renal) of over 100 µM, a TGI (PC-3 prostate) of over 100 µM and a TGI (NCI-H460 lung) of over 100 µM. It also gave a TGI (NCI-H23 lung) of over 100 µM, a TGI (HCC-2998 colon) of over 100 µM and a TGI (SF-539 CNS) of over 100 µM. For the same compound, the TGI (HCT-116 colon) was over 100 µM, the TGI (SK-OV-3 ovarian) was over 100 µM and the TGI (HL-60(TB) leukemia) was over 100 µM.

Work on `COc1cc(OC)c(OC)cc1/C=C/c1cnnc2ccccc12` yielded a TGI (U251 CNS) of over 10 µM, a TGI (SNB-75 CNS) of over 10 µM and a TGI (SF-268 CNS) of over 10 µM. The TGI (EKVX NSCLC) was over 10 µM, the TGI (TK-10 renal) was over 10 µM and the TGI (HT29 colon) was over 10 µM. For the same compound, the TGI (MDA-N) was over 10 µM, the TGI (SF-295 CNS) was over 10 µM and the TGI (UACC-62 melanoma) was over 10 µM. It also gave a TGI (IGROV1 ovarian) of over 10 µM, a TGI (A549 NSCLC) of over 10 µM and a TGI (KM12 colon) of over 10 µM. It also gave a TGI (SK-MEL-5 melanoma) of over 10 µM, a TGI (RXF 393 renal) of over 10 µM and a TGI (M14 melanoma) of over 10 µM. It also gave a TGI (K-562 leukemia) of over 10 µM, a TGI (LOX IMVI melanoma) of over 10 µM and a TGI (RPMI-8226 leukemia) of over 10 µM. It also gave a TGI (OVCAR-4 ovarian) of over 10 µM, a TGI (COLO 205 colon) of over 10 µM and a TGI (SK-MEL-28 melanoma) of over 10 µM. For the same compound, the TGI (MDA-MB-435) was 6.52 µM, the TGI (MOLT-4 leukemia) was over 10 µM and the TGI (HOP-92 NSCLC) was over 10 µM. It also gave a TGI (SK-MEL-2 melanoma) of over 10 µM, a TGI (HS 578T breast) of over 10 µM and a TGI (MDA-MB-231 breast) of over 10 µM. For the same compound, the TGI (HCT-15 colon) was over 10 µM, the TGI (OVCAR-5 ovarian) was over 10 µM and the TGI (HOP-62 NSCLC) was over 10 µM. For the same compound, the TGI (UO-31 renal) was over 10 µM, the TGI (T-47D breast) was over 10 µM and the TGI (MALME-3M melanoma) was over 10 µM. For the same compound, the TGI (CCRF-CEM leukemia) was over 10 µM, the TGI (MCF7 breast) was over 10 µM and the TGI (NCI/ADR-RES ovarian) was over 10 µM. For the same compound, the TGI (NCI-H522 lung) was over 10 µM, the TGI (SNB-19 CNS) was over 10 µM and the TGI (SN12C renal) was over 10 µM. For the same compound, the TGI (UACC-257 melanoma) was over 10 µM, the TGI (SW-620 colon) was over 10 µM and the TGI (NCI-H226 lung) was over 10 µM. For the same compound, the TGI (OVCAR-8 ovarian) was over 10 µM, the TGI (BT-549 breast) was over 10 µM and the TGI (ACHN renal) was over 10 µM. The TGI (CAKI-1 renal) was over 10 µM, the TGI (OVCAR-3 ovarian) was over 10 µM and the TGI (A498 renal) was over 10 µM. The TGI (786-0 renal) was over 10 µM, the TGI (PC-3 prostate) was over 10 µM and the TGI (NCI-H460 lung) was over 10 µM. It also gave a TGI (NCI-H23 lung) of over 10 µM, a TGI (HCC-2998 colon) of over 10 µM and a TGI (SF-539 CNS) of over 10 µM. For the same compound, the TGI (DU-145 prostate) was over 10 µM, the TGI (HCT-116 colon) was over 10 µM and the TGI (SK-OV-3 ovarian) was over 10 µM. It also gave a TGI (HL-60(TB) leukemia) of over 10 µM.
